{
  "source": "patent US8192962B2",
  "about": "“Processes for detecting toxic substances” (Daikin Industries, Ltd., priority 2001, dated 2012)",
  "tested_on": "Transport facilitation protein genes",
  "assay": "DNA chip mRNA expression in yeast, transport facilitation protein genes (Table 5)",
  "type": "cell-based, Saccharomyces cerevisiae S288C",
  "protocol": "Yeast (Saccharomyces cerevisiae S288C (α SUC2mal mel gap2 CUP1)) were incubated at 25° C. on YPD medium (yeast extract 1%, polypepton 2%, glucose 2%). One of toxic chemical substances was added to the cells at logarithmic growth phase, and the cells were further incubated for two hours. Cells were cultured without any chemical substance in the same condition, and were used as control. Concentrations of the chemical substances were defined to inhibit the growth of the yeast but not lead to death.\nAfter completion of the incubation, the culture was centrifuged to collect the cells. To the cells, sodium acetate buffer (50 mM sodium acetate, 10 mM EDTA, 1% SDS) was added, and the mixture was shaken at 65° C. for five minutes, followed by returning to room temperature, and obtaining the supernatant, of which the procedures were repeated two times. To the supernatant, ½ amount of a solution of phenol/chloroform was added, and the mixture was centrifuged to give a supernatant, which was added with an equal amount of chloroform, and the mixture was centrifuged to give a supernatant. To the supernatant, an equal amount of isopropanol containing 0.3 M sodium acetate was added, and the mixture was allowed to stand at room temperature for 30 minutes, after which the mixture was centrifuged to give a sediment of the whole RNAs. Seventy % ethanol was added to the sediment, and the mixture was again centrifuged to give a sediment, which was then dried and dissolved in water. mRNA was isolated from the whole RNAs as followings. In view of the fact that a poly A chain is attached to the 3′ terminus of mRNA, a polynucleotide having a poly T structure which was immobilized on the surface of latex beads was used to trap the mRNA, and then the mRNA was washed and eluted with spine column (Oligotex-dT30<Super>mRNA Purification Kit, Takara). Reverse transcription of the mRNA was conducted with a reverse transcriptase (Super Script II Reverse Transcriptase; catalogue No. 18064-014, GibcoBRL) using fluorescence-labeled nucleotides to give cDNAs that were introduced with Cy3-dUTP or Cy5-dUTP during the reverse transcription.\nThe labeled cDNAs were dissolved in TE buffer (10mM Tris-HCl/1 mM EDTA, pH8.0), and the solution was dropped on the DNA chip containing the whole genes of yeast (DNA Chip Research Inc. Japan) so that the cDNAs were hybridized on the DNA chip at 65° C. for over 12 hours. The fluoresces intensity of the DNA chip was read with a scanner, and the ratio relative to the fluorescence intensity resulting from the absence of chemical substance was estimated as the following, which is shown in Tables 1 to 9: […]",
  "data": [
    {"substance": "Na2As [(1)]", "values": [
      {"measurement": "The level of expressed mRNA in the presence of chemical substance/The level of expressed mRNA in the absence of chemical substance", "setting": "yeast gene YBL030C", "value": 1.0},
      {"measurement": "The level of expressed mRNA in the presence of chemical substance/The level of expressed mRNA in the absence of chemical substance", "setting": "yeast gene YBL099W", "value": 0.8},
      {"measurement": "The level of expressed mRNA in the presence of chemical substance/The level of expressed mRNA in the absence of chemical substance", "setting": "yeast gene YBR052C", "value": 1.6},
      {"measurement": "The level of expressed mRNA in the presence of chemical substance/The level of expressed mRNA in the absence of chemical substance", "setting": "yeast gene YBR068C", "value": 1.1},
      {"measurement": "The level of expressed mRNA in the presence of chemical substance/The level of expressed mRNA in the absence of chemical substance", "setting": "yeast gene YBR127C", "value": 0.8},
      {"measurement": "The level of expressed mRNA in the presence of chemical substance/The level of expressed mRNA in the absence of chemical substance", "setting": "yeast gene YBR132C", "value": 0.9},
      {"measurement": "The level of expressed mRNA in the presence of chemical substance/The level of expressed mRNA in the absence of chemical substance", "setting": "yeast gene YBR207W", "value": 0.8},
      {"measurement": "The level of expressed mRNA in the presence of chemical substance/The level of expressed mRNA in the absence of chemical substance", "setting": "yeast gene YBR293W", "value": 1.9},
      {"measurement": "The level of expressed mRNA in the presence of chemical substance/The level of expressed mRNA in the absence of chemical substance", "setting": "yeast gene YBR294W", "value": 6.3},
      {"measurement": "The level of expressed mRNA in the presence of chemical substance/The level of expressed mRNA in the absence of chemical substance", "setting": "yeast gene YBR295W", "value": 1.4},
      {"measurement": "The level of expressed mRNA in the presence of chemical substance/The level of expressed mRNA in the absence of chemical substance", "setting": "yeast gene YBR298C", "value": 1.1},
      {"measurement": "The level of expressed mRNA in the presence of chemical substance/The level of expressed mRNA in the absence of chemical substance", "setting": "yeast gene YCL025C", "value": 1.1},
      {"measurement": "The level of expressed mRNA in the presence of chemical substance/The level of expressed mRNA in the absence of chemical substance", "setting": "yeast gene YCL038C", "value": 1.6},
      {"measurement": "The level of expressed mRNA in the presence of chemical substance/The level of expressed mRNA in the absence of chemical substance", "setting": "yeast gene YCR024C-A", "value": 0.8},
      {"measurement": "The level of expressed mRNA in the presence of chemical substance/The level of expressed mRNA in the absence of chemical substance", "setting": "yeast gene YCR037C", "value": 0.7},
      {"measurement": "The level of expressed mRNA in the presence of chemical substance/The level of expressed mRNA in the absence of chemical substance", "setting": "yeast gene YCR098C", "value": 1.6},
      {"measurement": "The level of expressed mRNA in the presence of chemical substance/The level of expressed mRNA in the absence of chemical substance", "setting": "yeast gene YDL128W", "value": 0.8},
      {"measurement": "The level of expressed mRNA in the presence of chemical substance/The level of expressed mRNA in the absence of chemical substance", "setting": "yeast gene YDL198C", "value": 1.4},
      {"measurement": "The level of expressed mRNA in the presence of chemical substance/The level of expressed mRNA in the absence of chemical substance", "setting": "yeast gene YDL210W", "value": 1.2},
      {"measurement": "The level of expressed mRNA in the presence of chemical substance/The level of expressed mRNA in the absence of chemical substance", "setting": "yeast gene YDL245C", "value": 1.0},
      {"measurement": "The level of expressed mRNA in the presence of chemical substance/The level of expressed mRNA in the absence of chemical substance", "setting": "yeast gene YDR038C", "value": 0.6},
      {"measurement": "The level of expressed mRNA in the presence of chemical substance/The level of expressed mRNA in the absence of chemical substance", "setting": "yeast gene YDR039C", "value": 0.6},
      {"measurement": "The level of expressed mRNA in the presence of chemical substance/The level of expressed mRNA in the absence of chemical substance", "setting": "yeast gene YDR086C", "value": 1.3},
      {"measurement": "The level of expressed mRNA in the presence of chemical substance/The level of expressed mRNA in the absence of chemical substance", "setting": "yeast gene YDR270W", "value": 0.7},
      {"measurement": "The level of expressed mRNA in the presence of chemical substance/The level of expressed mRNA in the absence of chemical substance", "setting": "yeast gene YDR298C", "value": 1.3},
      {"measurement": "The level of expressed mRNA in the presence of chemical substance/The level of expressed mRNA in the absence of chemical substance", "setting": "yeast gene YDR342C", "value": 2.8},
      {"measurement": "The level of expressed mRNA in the presence of chemical substance/The level of expressed mRNA in the absence of chemical substance", "setting": "yeast gene YDR343C", "value": 1.2},
      {"measurement": "The level of expressed mRNA in the presence of chemical substance/The level of expressed mRNA in the absence of chemical substance", "setting": "yeast gene YDR345C", "value": 0.8},
      {"measurement": "The level of expressed mRNA in the presence of chemical substance/The level of expressed mRNA in the absence of chemical substance", "setting": "yeast gene YDR387C", "value": 0.8},
      {"measurement": "The level of expressed mRNA in the presence of chemical substance/The level of expressed mRNA in the absence of chemical substance", "setting": "yeast gene YDR497C", "value": 0.7},
      {"measurement": "The level of expressed mRNA in the presence of chemical substance/The level of expressed mRNA in the absence of chemical substance", "setting": "yeast gene YEL027W", "value": 1.2},
      {"measurement": "The level of expressed mRNA in the presence of chemical substance/The level of expressed mRNA in the absence of chemical substance", "setting": "yeast gene YEL063C", "value": 0.7},
      {"measurement": "The level of expressed mRNA in the presence of chemical substance/The level of expressed mRNA in the absence of chemical substance", "setting": "yeast gene YEL065W", "value": 0.3},
      {"measurement": "The level of expressed mRNA in the presence of chemical substance/The level of expressed mRNA in the absence of chemical substance", "setting": "yeast gene YER053C", "value": 1.6},
      {"measurement": "The level of expressed mRNA in the presence of chemical substance/The level of expressed mRNA in the absence of chemical substance", "setting": "yeast gene YFL011W", "value": 1.2},
      {"measurement": "The level of expressed mRNA in the presence of chemical substance/The level of expressed mRNA in the absence of chemical substance", "setting": "yeast gene YFL041W", "value": 0.7},
      {"measurement": "The level of expressed mRNA in the presence of chemical substance/The level of expressed mRNA in the absence of chemical substance", "setting": "yeast gene YFL050C", "value": 0.7},
      {"measurement": "The level of expressed mRNA in the presence of chemical substance/The level of expressed mRNA in the absence of chemical substance", "setting": "yeast gene YFL054C", "value": 1.6},
      {"measurement": "The level of expressed mRNA in the presence of chemical substance/The level of expressed mRNA in the absence of chemical substance", "setting": "yeast gene YGL006W", "value": 2.5},
      {"measurement": "The level of expressed mRNA in the presence of chemical substance/The level of expressed mRNA in the absence of chemical substance", "setting": "yeast gene YGL008C", "value": 0.6},
      {"measurement": "The level of expressed mRNA in the presence of chemical substance/The level of expressed mRNA in the absence of chemical substance", "setting": "yeast gene YGL104C", "value": 0.8},
      {"measurement": "The level of expressed mRNA in the presence of chemical substance/The level of expressed mRNA in the absence of chemical substance", "setting": "yeast gene YGL167C", "value": 0.9},
      {"measurement": "The level of expressed mRNA in the presence of chemical substance/The level of expressed mRNA in the absence of chemical substance", "setting": "yeast gene YGL255W", "value": 0.7},
      {"measurement": "The level of expressed mRNA in the presence of chemical substance/The level of expressed mRNA in the absence of chemical substance", "setting": "yeast gene YGR055W", "value": 2.5},
      {"measurement": "The level of expressed mRNA in the presence of chemical substance/The level of expressed mRNA in the absence of chemical substance", "setting": "yeast gene YGR065C", "value": 0.8},
      {"measurement": "The level of expressed mRNA in the presence of chemical substance/The level of expressed mRNA in the absence of chemical substance", "setting": "yeast gene YGR082W", "value": 1.0},
      {"measurement": "The level of expressed mRNA in the presence of chemical substance/The level of expressed mRNA in the absence of chemical substance", "setting": "yeast gene YGR096W", "value": 1.5},
      {"measurement": "The level of expressed mRNA in the presence of chemical substance/The level of expressed mRNA in the absence of chemical substance", "setting": "yeast gene YGR138C", "value": 1.1},
      {"measurement": "The level of expressed mRNA in the presence of chemical substance/The level of expressed mRNA in the absence of chemical substance", "setting": "yeast gene YGR191W", "value": 0.8},
      {"measurement": "The level of expressed mRNA in the presence of chemical substance/The level of expressed mRNA in the absence of chemical substance", "setting": "yeast gene YGR197C", "value": 1.1}
    ]}
  ]
}
